# Test results: US9095534B2, “Intermittent dosing of nitric oxide gas” (SENSORMEDICS CORPORATION, priority 2004, dated 2015)
# Legend:
# E. coli = test: Survival of bacteria under cycled high/low NO gas exposure (cfu/ml); type: cell-based; details: 160 ppm for 30 minutes then 20 ppm for 3.5 hours, cycled every 4 hours for 24 hours; compared to air; FIG. 9
# Description: (§1) The effectiveness of the intermittent nigh dose delivery of […] oxide gas in combating microorganisms was tested and verified. Briefly, the experimental methods were as follows. Inoculums of varying bacteria was prepared to a suspension of 2.5×10^8 cfu/ml, and diluted 1:1000 in sterile normal saline. Three milliliters of the inoculums were used per well in a sterile culture place. Exposure of the inoculums were performed in an exposure chamber, which has been described for example, in Gliafarri, A. et al., “A direct nitric oxide gas delivery system for bacterial and mammalian cell cultures,” Nitric Oxide. 12(3):129-40 (May 2005), which is hereby incorporated by reference as if fully set forth herein. The inoculums were exposed to 160 ppm of NO gas at a flow rate of 2.5 liters per minute for 30 minutes followed by exposure to 20 ppm of NO gas for 3.5 hours. The exposure to high and low concentrations of NO gas was repeatedly cycled every 4 hours for 24 hours. At various times (e.g., 0, 4, 8, and 12 hours), samples were taken and plated to determine the survivability of the bacteria as determined by counting cfu/ml.
# [1] = tested on: P. aeruginosa (ATCC #27853); test: as above; type: cell-based; details: 160 ppm for 30 minutes then 20 ppm for 3.5 hours, cycled every 4 hours for 24 hours; compared to air; FIG. 7
# Description: as §1
# [2] = tested on: P. aeruginosa (clinical strain from Cystic Fibrosis); test: as above; type: cell-based; details: 160 ppm for 30 minutes then 20 ppm for 3.5 hours, cycled every 4 hours for 24 hours; compared to air; FIG. 8
# Description: as §1
# S. aureus (ATCC #25923) = test: as above; type: cell-based; details: 160 ppm for 30 minutes then 20 ppm for 3.5 hours, cycled every 4 hours for 24 hours; compared to air; FIG. 6
# Description: as §1
# Mycobacteria = test: Sensitivity of various microorganisms to NO gas damage; type: cell-based; details: relative to other microorganisms studied
# Description: (§2) Additional studies were performed to test the hypothesis that the effect of NO gas in killing microorganisms is related to thiol function. […] This may be due to Mycobacteria having an exceptional thiol, mycothiol, that maintains the redox balance in the cell and protects the cell from nitrosative and oxidative stress. In order to test this hypothesis, sensitivities to NO gas was compared between mycothiol-deficient Mycobacterium smegmatis Mutant MshA to its wild type counterpart, mc^2155 by exposing both strains to 200 ppm of NO gas. MshA is an enzyme needed in mycothiol biosynthesis.
# [3] = tested on: mycothiol-deficient Mycobacterium smegmatis Mutant MshA; test: Survival of mycothiol-deficient mutant versus wild type on exposure to NO gas; type: cell-based; details: 200 ppm NO gas; FIG. 10
# Description: as §2
# [4] = tested on: mycothiol in wild type M. smegmatis; test: Mycothiol level by HPLC after exposure to NO gas; type: cell-based, Mycobacterium smegmatis; details: 400 ppm NO gas, compared to exposure to air, FIG. 11
# Description: Further experiments were conducted to assay and measure the mycothiol level using HPLC in wild type M. smegmatis after exposure to 400 ppm NO gas and were compared to mycothiol level after exposure to air.
structure (smiles),measurement,setting,value
[N]=O [nitric oxide],survival of E. coli,E. coli,effective method of killing the bacteria
same,survival of P. aeruginosa (ATCC #27853),[1],effective method of killing the bacteria
same,survival of P. aeruginosa (clinical strain from Cystic Fibrosis),[2],effective method of killing the bacteria
same,survival of S. aureus (ATCC #25923),S. aureus (ATCC #25923),effective method of killing the bacteria
same,sensitivity of Mycobacteria to NO gas damage,Mycobacteria,less sensitive to NO gas damage
same,sensitivity of MshA mutant to NO gas versus wild type mc^2155,[3],more sensitive to NO gas than its wild type counterpart
same,time to kill MshA mutant versus wild type mc^2155,[3],killed in less time than its wild type counterpart
same,level of mycothiol in wild type M. smegmatis,[4],reduced compared to exposure to air
